Four compounds from patent US20030086923A1, “Method for the prevention and/or treatment of atherosclerosis” (priority 1999, published 2003) can be followed below.

Assay [1] deals with T1, human GST-LXRα receptor (Homo sapiens, UniProt Q13133).
T1 construct: made in house; host or cells: E. coli (pGEX-KT vector)
T1 sequence (Q13133 164-447): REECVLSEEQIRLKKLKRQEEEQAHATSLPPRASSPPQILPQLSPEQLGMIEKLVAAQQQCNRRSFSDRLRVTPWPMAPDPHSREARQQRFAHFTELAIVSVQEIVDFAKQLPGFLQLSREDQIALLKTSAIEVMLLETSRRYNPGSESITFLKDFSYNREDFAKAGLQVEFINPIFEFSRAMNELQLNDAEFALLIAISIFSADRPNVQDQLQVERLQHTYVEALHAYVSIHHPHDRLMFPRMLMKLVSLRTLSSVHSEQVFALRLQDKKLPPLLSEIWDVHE
As to the kind of experiment: Radioligand competition binding scintillation proximity assay, LXRα. An excerpt:
(§1) Radioligand Competition Binding Scintillation Proximity Assays:
(§2) Preparation of Recombinant Human LXRα and LXRβ:
(§3) Human LXRα and LXRβ were expressed as GST-fusion proteins in E. coli. The ligand binding domain cDNAs for human LXRα (amino acids 164-447) and human LXRβ (amino acids 149-455) were subcloned into the pGEX-KT expression vector (Pharmacia). E. coli containing the respective plasmids were propagated, induced, and harvested by centrifugation. The resuspended pellet was broken in a French press and debris was removed by centrifugation. Recombinant human LXR receptors were purified by affinity chromatography on glutathione sepharose and receptor was eluted with glutathione. Glycerol was added to a final concentration of 50% to stabilize the receptor and aliquots were stored at −80° C.
(§4) After incubation for ˜16 h at 15° C. with shaking, the assay plates were counted in a Packard Topcount.

The target in assay [2] is T2, human GST-LXRβ ligand binding domain receptor (Homo sapiens, UniProt P55055).
T2 construct: human LXRβ (amino acids 149-455) were subcloned into the pGEX-KT expression vector; made in house; host or cells: E. coli (pGEX-KT vector)
T2 sequence (P55055 149-455): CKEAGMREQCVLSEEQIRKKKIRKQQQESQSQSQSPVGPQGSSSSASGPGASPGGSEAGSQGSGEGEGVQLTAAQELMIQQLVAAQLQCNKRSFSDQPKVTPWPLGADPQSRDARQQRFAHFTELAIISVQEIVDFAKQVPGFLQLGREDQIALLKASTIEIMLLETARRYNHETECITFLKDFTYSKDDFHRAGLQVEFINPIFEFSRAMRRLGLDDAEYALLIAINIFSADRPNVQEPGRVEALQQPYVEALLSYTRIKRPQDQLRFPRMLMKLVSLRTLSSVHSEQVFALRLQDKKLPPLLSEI
As to the kind of experiment: Radioligand competition binding scintillation proximity assay, LXRβ.
Description: as §1, §2, §3, §4

Assay [3] deals with T3, LXRα-GAL4 fusion protein (Homo sapiens, UniProt Q13133).
T3 construct: expressed in transfected cells; host or cells: HEK-293 (pcDNA3-LXRα/GAL4)
T3 sequence (Q13133 209-447 limits assumed): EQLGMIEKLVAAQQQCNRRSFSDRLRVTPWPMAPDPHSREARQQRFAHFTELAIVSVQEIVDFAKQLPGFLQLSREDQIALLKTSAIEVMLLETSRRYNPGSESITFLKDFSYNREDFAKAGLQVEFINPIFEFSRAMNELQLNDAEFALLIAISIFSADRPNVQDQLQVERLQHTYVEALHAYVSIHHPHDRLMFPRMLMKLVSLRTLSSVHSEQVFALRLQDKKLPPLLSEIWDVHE
As to the kind of experiment: LXRα/GAL4 transactivation assay in HEK-293 cells. The following applies: 48 h. The class given is cell-based. The procedure: (§5) Expression constructs were prepared by inserting the ligand binding domain (LBD) of human LXRα and LXRβ cDNAs adjacent to the yeast GAL4 transcription factor DNA binding domain (DBD) in the mammalian expression vector pcDNA3 to create pcDNA3-LXRα/GAL4 and pcDNA3-LXRβ/GAL4, respectively. The GAL4-responsive reporter construct, pUAS(5×)-tk-luc, contained 5 copies of the GAL4 response element placed adjacent to the thymidine kinase minimal promoter and the luciferase reporter gene. The transfection control vector, pEGFP-N1, contained the Green Fluorescence Protein (GFP) gene under the regulation of the cytomegalovirus promoter.
(§6) HEK-293 cells were seeded at 40,000 cells/well in 96 well plates in Dulbecco's modified Eagle medium (high glucose) containing 10% charcoal stripped fetal calf serum (FCS), 100 units/ml Penicillin G and 100 μg/ml Streptomycin sulfate at 37° C. in a humidified atmosphere of 5% CO2. After 24 h, transfections were performed with Lipofectamine (Gibco-BRL, Gaithersburg, Md.) according to the instructions of the manufacturer. […] Luciferase activity in cell extracts was determined using Luciferase Assay Buffer (Promega) in a ML3000 luminometer (Dynatech Laboratories). GFP expression was determined using the Tecan Spectrofluor Plus at excitation wavelength of 485 nm and emission at 535 nm. […]

Assay [4] has as its target T4, LXRβ-GAL4 fusion protein (Homo sapiens, UniProt P55055).
T4 construct: expressed in transfected cells; host or cells: HEK-293 (pcDNA3-LXRβ/GAL4)
T4 sequence (P55055 222-460 limits assumed): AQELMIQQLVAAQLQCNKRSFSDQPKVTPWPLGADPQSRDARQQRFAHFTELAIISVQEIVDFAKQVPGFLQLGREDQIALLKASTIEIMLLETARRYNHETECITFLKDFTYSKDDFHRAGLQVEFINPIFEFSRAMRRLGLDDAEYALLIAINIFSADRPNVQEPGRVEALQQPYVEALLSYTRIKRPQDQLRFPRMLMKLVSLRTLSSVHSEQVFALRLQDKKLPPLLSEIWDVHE
The assay can be described thus: LXRβ/GAL4 transactivation assay in HEK-293 cells. The class given is cell-based. The following applies: 48 h. On the procedure:
as §5, §6

Assay [5] concerns THP-1 macrophages. The assay can be described thus: Stimulation of cholesterol efflux from cultured THP-1 macrophages. The class given is cell-based, human. As to conditions: for EC50: Homo sapiens, THP-1. From the text: Stimulation of Cholesterol Efflux from Cultured Cells
Patients with Tangier disease have mutations in the ABC1 gene and have very low HDL levels. Cultured cells from these patients are defective in cholesterol efflux (Francis et al. (1995) J. Clin. Invest. 96:78-87). Therefore, induction of ABC1 mRNA should lead to increased cholesterol efflux and increased HDL levels (Francis et al. (1999) Clinica Chimica Acta 286:219-230). TIIP-1 cells were used to determine whether induction of ABC1 mRNA by Compound 1 would increase cholesterol efflux. Specifically, cultured human THP-1 cells were stimulated to differentiate into macrophages by incubation with 100 nM tetradecanoyl phorbol acetate for three days, as described above. After differentiation, the TUP-1 macrophages were labeled with ^3H-cholesterol by incubation for 24 hours with 10 μCi/ml ^3H-cholesterol in Complete RPMI media containing 0.1% lipid-free bovine serum albumin (BSA) plus 100 nM tetradecanoyl phorbol acetate. After labeling, the cells were incubated for 24 hours in Complete RPMI media with 0.1% lipid-free bovine serum albumin (BSA) to allow for equilibration of cellular cholesterol pools. Cholesterol efflux was then measured over the following 24 hours by incubating the cells in Complete RPMI media containing 10 μg/ml of apoA-I as cholesterol acceptor, and either Compound 1 or DMSO as control.

Assay [6] is described as follows: HDL-raising activity in hamsters. The class given is in vivo, hamster. As to conditions: oral gavage 10 mg per kg twice per day, seven days, p=0.01. The procedure: HDL-Raising Activity: Hamsters were given Compound 4 by oral gavage at 10 mg per kg body weight, twice per day, for seven days. Blood was then collected and serum HDL cholesterol measured.
For assay [7], the system named is ABC1 mRNA. The assay can be described thus: Induction of ABC1 mRNA levels in THP-1 macrophages. The format is cell-based. As to conditions: Homo sapiens, ABC-1, 15 μM, 6 hours, vs DMSO control, read-out: Fold Induction of ABC1 mRNA (Mean ± SEM). On the procedure:
Induction of ABC1 mRNA levels
Cultured human THP-1 cells were used. All cell culture incubations were performed at 37° C. under 95% air/5% carbon dioxide. Cells were grown in Complete RPMI medium plus 10% FCS (Fetal Calf Serum). Complete RPMI medium is defined as RPMI medium (Sigma Cat.# R8005) containing […], 1 mM Na Pyruvate, 2 mM L-Glutamine, and Antibiotic-Antimyotic Solution (Sigma Cat.# A9909: 100U/ml Penicillin, 0.1 mg/ml Streptomycin, 0.251l/ml Amphotericin B). Cells were differentiated into macrophages by incubation in Complete RPMI medium plus 10% FCS (Fetal Calf Serum) plus 100 nM tetradecanoyl phorbol acetate for three days. After differentiation, the THP-1 macrophages were incubated in Complete RPMI medium plus 10% FCS (Fetal Calf Serum) with the test LXR agonist. After 6 hours at 37° C., the cells were harvested and total RNA prepared using the phenol/guanidine isothiocyanate method as supplied and described by Molecular Research Center, Inc. (TRI REAGENTφ Cat. No. TR 118). ABC1 mRNA levels in the total RNA were measured using the TaqMan® mRNA quantitation system, following protocols published by the manufacturer (Perkin-Elmer). The oligonucleotide PCR primers used to detect ABC1 were:
The oligonucleotide probe used was:
ABC1 mRNA levels in each sample were normalized to the mRNA levels for the 23 kDa highly basic protein. […]

The test system of assay [8] is LXR. The assay can be described thus: Activity on LXR (assay not specified).

Turning to `CCCc1c(OCCCN2C(=O)CCNC2=O)ccc2c(C(F)(F)F)noc12` [Compound 4, 4,5-Dihydro-1-(3-(3-trifluoromethyl-7-propyl-benzisoxazol-6-yloxy)propyl)-2,6-pyrimidinedione], the IC50 turned out to be 1 nM in assay [1] and 72 nM in assay [2]. Also, the EC50 in assay [3] came to 183 nM; in assay [4] it was 360 nM; in assay [5] it was 63 nM. Besides, the “Increase of serum HDL cholesterol levels vs vehicle control” value in assay [6] was 21%.

Regarding `CC(C)CC[C@@H](O)[C@@H](C)[C@H]1CC[C@H]2[C@@H]3CC=C4C[C@@H](O)CC[C@]4(C)[C@H]3CC[C@]12C` [Compound 2, 22(R)-hydroxycholesterol, reference compound], the fold induction at 15 µM in assay [7] is 6.7 ± 1.2. The “Stimulation of cholesterol efflux” value in assay [5] (5 μM, p<0.001) was 57%.

As to `CC(C)CC[C@H](O)[C@@H](C)[C@H]1CC[C@H]2[C@@H]3CC=C4C[C@@H](O)CC[C@]4(C)[C@H]3CC[C@]12C` [22-(S)-hydroxy-cholesterol, reference compound], in assay [5], the “Stimulation of cholesterol efflux (in words)” value was “did not stimulate cholesterol efflux at all”. In assay [8], the “Activity on LXR (in words)” value is “inactive”.

As to `CC(C)N(C(=O)[C@H]1CCC2C3CC=C4N(C)C(=O)CCC4(C)C3CCC21C)C(C)C` (stereo partly shown) [Compound 3], the IC50 in assay [1] was 112 nM; in assay [2], 442 nM. This compound gave an EC50 in assay [5] of 120 nM.
